Assay results taken from ChEMBL document CHEMBL6109134, “Discovery of AMG 193, an MTA-Cooperative PRMT5 Inhibitor for the Treatment of MTAP-Deleted Cancers” (J Med Chem, 2025).

What was measured:
[1] = system: HCT-116; assay: Antiproliferative activity against MTAP-deleted human HCT-116 cells assessed as effect on cell viability incubated for 6 days by Celltiter-Glo luminescent cell viability assay; assay type: functional, cell-based; details: HCT-116, 144 h
[2] = Metabolic stability in dog liver microsomes assessed as intrinsic clearance; assay type: ADME, Canis lupus familiaris, Microsome; details: read-out: CLH
[3] = Clearance in Sprague-Dawley rat at 0.5 mg/kg, iv; details: in vivo
[4] = Protein binding in mouse plasma assessed as unbound fraction by ultracentrifugation; details: plasma
[5] = Metabolic stability in rat liver microsomes assessed as intrinsic clearance; assay type: ADME, Microsome; details: time 40 min, read-out: CLH
[6] = Metabolic stability in dog hepatocytes assessed as intrinsic clearance measured per 10^6 cells; assay type: ADME, cell-based, Canis lupus familiaris, Hepatocyte; details: read-out: CLH
[7] = Drug metabolism in mouse hepatocytes assessed as 3-methylquinoline ring system oxidation mediated metabolite formation; assay type: ADME, cell-based, Hepatocyte
[8] = Metabolic stability in mouse liver microsomes assessed as intrinsic clearance at 0.5 uM incubated for 40 mins in presence of NADPH; assay type: ADME, Microsome; details: read-out: CLH
[9] = system: DOHH-2; assay: Antiproliferative activity against human DOHH-2 cells assessed as effect on cell viability; assay type: functional, cell-based
[10] = Half-life in Sprague-Dawley rat at 0.5 mg/kg, iv; assay type: ADME, organism-based; details: in vivo
[11] = Oral bioavailability in Beagle dog at 2 mg/kg administered as 1% Tween 80, 2% HPMC, 97% water/methanesulfonic acid, pH 2.0 formulation; assay type: ADME, organism-based, Canis lupus familiaris; details: in vivo
[12] = Metabolic stability in human hepatocytes assessed as intrinsic clearance measured per 10^6 cells; assay type: ADME, cell-based, Hepatocyte; details: read-out: CLH
[13] = Protein binding in human plasma assessed as unbound fraction by ultracentrifugation
[14] = system: BXPC-3; assay: Antiproliferative activity against human BXPC-3 cells assessed as effect on cell viability; assay type: functional, cell-based
[15] = system: U-87 MG; assay: Antiproliferative activity against human U-87 MG cells assessed as effect on cell viability; assay type: functional, cell-based, U-87MG ATCC
[16] = Volume of distribution at steady state in Sprague-Dawley rat at 0.5 mg/kg, iv; details: in vivo
[17] = AUC (0 to t) in CD-1 mouse at 5 mg/kg, po administered as 1% Tween 80, 2% HPMC, 97% water/methane sulfonic acid, pH 2.0 formulation; assay type: ADME, organism-based; details: in vivo
[18] = in vivo; details: beagle, dog, iv, 0.5 mg/kg
[19] = Drug metabolism in human hepatocytes assessed as 3-methylquinoline ring system oxidation mediated metabolite formation; assay type: ADME, cell-based, Hepatocyte
[20] = Unbound clearance in Sprague-Dawley rat at 0.5 mg/kg, iv; assay type: ADME, organism-based; details: in vivo
[21] = system: HCT-116; assay: Antiproliferative activity against human HCT-116 cells harboring wildtype MTAP assessed as effect on cell viability incubated for 6 days by Celltiter-Glo luminescent cell viability assay; assay type: functional, cell-based; details: HCT-116, 144 h
[22] = Half-life in Beagle dog at 0.5 mg/kg, iv; assay type: ADME, organism-based, Canis lupus familiaris; details: in vivo
[23] = Metabolic stability in mouse hepatocytes assessed as intrinsic clearance measured per 10^6 cells; assay type: ADME, cell-based, Hepatocyte; details: read-out: CLH
[24] = Metabolic stability in rat hepatocytes assessed as intrinsic clearance measured per 10^6 cells; assay type: ADME, cell-based, Hepatocyte; details: read-out: CLH
[25] = Unbound clearance in Beagle dog at 0.5 mg/kg, iv; assay type: ADME, organism-based, Canis lupus familiaris; details: in vivo
[26] = Clearance in Beagle dog at 0.5 mg/kg, iv; details: in vivo
[27] = Metabolic stability in human liver microsomes assessed as intrinsic clearance at 0.5 uM incubated for 40 mins in presence of NADPH; assay type: ADME, Microsome; details: read-out: CLH
[28] = Unbound clearance in CD-1 mouse at 1 mg/kg, iv; assay type: ADME, organism-based; details: in vivo
[29] = Protein binding in dog plasma assessed as unbound fraction by ultracentrifugation

Cc1cc2cc(C(=O)N(Cc3ccc(C(F)(F)F)cn3)[C@H](C)c3ncccn3)ccc2nc1N showed an IC50 [1] of 40 nM, a microsomal CLint [2] of 25 µL/min/mg and a clearance [3] of 26.7 mL/min/kg. For the same compound, the fraction unbound [4] was 0.12, the microsomal CLint at 0.5 µM [5] was 25 µL/min/mg and the hepatocyte CLint [6] was 12 µL/min/1e6 cells. For the same compound, the Drug metabolism [7] was “metabolite_detected”, the microsomal CLint at 0.5 µM [8] was 90 µL/min/mg and the IC50 [9] was 17 nM. For the same compound, the half-life [10] was 2.1 h, the bioavailability [11] was 45% and the hepatocyte CLint [12] was 9 µL/min/1e6 cells. For the same compound, the fraction unbound [13] was 0.1, the IC50 [14] was 73 nM and the IC50 [15] was 65 nM. The Vd [16] was 1.3 L/kg, the AUC(0-t) [17] was 1.01 µM·h and the Vd [18] was 1.9 L/kg. For the same compound, the Drug metabolism [19] was “metabolite_detected”, the CL free [20] was 167 mL/min/kg and the IC50 [21] was 854 nM. The half-life [22] was 1.2 h, the hepatocyte CLint [23] was 18 µL/min/1e6 cells and the hepatocyte CLint [24] was 11 µL/min/1e6 cells. The CL free [25] was 123 mL/min/kg, the clearance [26] was 25 mL/min/kg and the microsomal CLint at 0.5 µM [27] was 19 µL/min/mg. It also gave a CL free [28] of 317 mL/min/kg and a fraction unbound [29] of 0.2.
